Measured values taken from patent US10118911B2, “P-toluenesulfonate for MEK kinase inhibitor, and crystal form thereof and preparation method therefor” (Jiangsu Hengrui Medicine Co., Ltd., priority 2015, dated 2018).
One block for each compound: values may come before it.

Key:
[1] = Solubility compared to the free base; type: physicochemical
[2] = Bioavailability compared to the free base; type: in vivo
[3] = Stability of crystal form I spread flat in the air under lighting, heating and high humidity, purity detected by HPLC; type: physicochemical; conditions: for stability (in words): lighting, high temperature, high humidity, p-toluenesulfonate
Experimental: The product sample of crystal form I prepared in Example 2 was spread flat in the air, to test its stability under conditions of lighting, heating (40° C., 60° C.), and high humidity (RH 75%, RH 90%). Samplings were carried out on Day 5 and Day 10.

[4] = Special stability study of crystal form I (grinding, heating, pressing); type: physicochemical
Description: Crystal form I of the compound of formula (I) prepared according to the method of Example 2 was ground, heated and pressed.

[5] = system: MEK kinase; conditions: from PCT/CN2014/085976 of the applicant; cited from earlier work
[6] = after grinding treatment for 10 min in a mortar under nitrogen atmosphere
[7] = after heating treatment for 3 h at 80° C.
[8] = after pressing treatment (pressed to a slice)

solubility [1]: greatly improved | bioavailability [2]: greatly improved
Compound: Cc1ccc(Oc2cc(=O)n(C)c(Nc3ccc(I)cc3F)c2C(N)=O)cn1.Cc1ccc(S(=O)(=O)O)cc1 [compound of formula (I), 2-((2-fluoro-4-iodophenyl)amino)-1-methyl-4-((6-methylpyridin-3-yl)oxy)-6-oxo-1,6-di hydropyridine-3-carboxamide p-toluenesulfonate]

purity detected by HPLC ([3]; 40° C., day 0): 98.86% | purity detected by HPLC ([3]; 40° C., day 5): 98.85% | purity detected by HPLC ([3]; 40° C., day 10): 98.88% | purity detected by HPLC ([3]; 60° C., day 0): 98.86% | purity detected by HPLC ([3]; 60° C., day 5): 98.89% | purity detected by HPLC ([3]; 60° C., day 10): 98.88% | purity detected by HPLC ([3]; 4500 Lux, day 0): 98.86% | purity detected by HPLC ([3]; 4500 Lux, day 5): 99.08% | purity detected by HPLC ([3]; 4500 Lux, day 10): 99.17% | purity detected by HPLC ([3]; RH75%, day 0): 98.86% | purity detected by HPLC ([3]; RH75%, day 5): 98.88% | purity detected by HPLC ([3]; RH75%, day 10): 98.88% | purity detected by HPLC ([3]; RH90%, day 0): 98.86% | purity detected by HPLC ([3]; RH90%, day 5): 98.86% | purity detected by HPLC ([3]; RH90%, day 10): 98.88% | stability (in words) ([3]; listed as crystal form I): good stability | stability (in words) [3]: stable | Crystal form [4, 6]: form I | DSC peak [4, 6]: 237.66 °C | Crystal form [4, 7]: form I | DSC peak [4, 7]: 237.45 °C | Crystal form [4, 8]: form I | DSC peak [4, 8]: 237.75 °C | stability of the crystal form (in words) ([4]; grinding, pressure and heating): stable
Compound: Cc1ccc(Oc2cc(=O)n(C)c(Nc3ccc(I)cc3F)c2C(N)=O)cn1.Cc1ccc(S(=O)(=O)O)cc1 [2-((2-fluoro-4-iodophenyl)amino)-1-methyl-4-((6-methylpyridin-3-yl)oxy)-6-oxo-1,6-di hydropyridine-3-carboxamide p-toluenesulfonate]

Compound: Cc1ccc(Oc2cc(=O)n(C)c(Nc3ccc(I)cc3F)c2C(N)=O)cn1 [Example 1, 2-((2-fluoro-4-iodophenyl)amino)-1-methyl-4-((6-methylpyridin-3-yl)oxy)-6-oxo-1,6-dihydropyridine-3-carboxamide]
inhibitory activity against MEK kinase [5]: strong inhibitory activity
